Results as given in PubChem BioAssay (NCI).
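Results reflect a 48-hour exposure of cells in 96-well plates to compound at five concentrations. Abbreviation: GI50, concentration required for 50% inhibition of growth. TGI denotes the concentration required for complete inhibition of growth.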 Where a SMILES comes first, the peptide text is derived from it.

Columns and labels:
Test in all cases: DTP human tumour cell line panel, 48 h
[1] = test system: SK-MEL-5 melanoma
[2] = test system: U251 CNS
[3] = test system: HCT-116 colon
[4] = test system: LOX IMVI melanoma
[5] = test system: SNB-78 CNS
[6] = test system: 786-0 renal
[7] = test system: KM20L2 colon
[8] = test system: HOP-18 NSCLC
[9] = test system: NCI-H23 lung
[10] = test system: DMS 114 small cell lung
[11] = test system: MDA-MB-231 breast

SMILES | GI50 [1] | TGI [1] | GI50 [2] | TGI [2] | TGI [3] | TGI [4] | TGI [5] | TGI [6] | TGI [7] | TGI [8] | TGI [9] | TGI [10] | GI50 [3] | GI50 [4] | GI50 [11] | TGI [11] | GI50 [9] | GI50 [5] | GI50 [8] | GI50 [10]
COC1=CC(c2ccc[nH]2)=N/C1=C\c1[nH]c(C)c(CC(=O)NCc2ccccc2)c1C | 1.53 µM | 2.89 µM | 1.23 µM | 2.49 µM |  |  |  |  |  |  |  |  |  |  |  |  |  |  |  | 
O=C([O-])c1ccccc1Nc1ccccc1C(=O)[O-].[OH3+].[Zn+2] |  | 62.3 µM |  | 33 µM | > 78.2 µM | 44.9 µM | > 87.1 µM | 57.7 µM | > 100 µM | > 75.9 µM | 28.9 µM | 37.4 µM |  |  |  |  |  |  |  | 
O=C(N/N=C\c1ccc(N(CCCl)CCCl)cc1)c1cccnc1 | 36.3 µM | > 100 µM | > 100 µM | > 100 µM | > 100 µM | > 100 µM |  |  |  |  | > 100 µM |  | 51 µM | 21.3 µM | 24.8 µM | > 100 µM | 15.8 µM |  |  | 
COc1cc2c(c(OC)c1OC)-c1ccc(OC)c(=O)cc1C(NC(=O)CCCCCNc1ccc(N=[N+]=[N-])cc1[N+](=O)[O-])CC2 (centres undefined) |  | < 0.01 µM |  | 11.1 µM | < 0.0105 µM | 9.55 µM |  |  |  |  | > 100 µM |  |  |  |  | < 0.01 µM |  |  |  | 
COc1c(O)cc2c(c1O)C(=O)C(Cc1ccc(O)cc1)CO2 (centres undefined) |  | > 100 µM |  | > 100 µM | > 100 µM | > 100 µM |  | > 100 µM |  |  | > 100 µM |  |  |  |  | > 100 µM |  |  |  | 
CC1=C/C(=N\NS(=O)(=O)c2ccc([N+](=O)[O-])cc2)CC(C)(C)C1 |  | > 100 µM |  | > 100 µM | > 100 µM | > 100 µM |  | > 100 µM |  |  | > 100 µM |  |  |  |  | > 100 µM |  |  |  | 
N=C1c2ccccc2C(=O)c2c(NCCNCCO)ccc(O)c21 |  | 19.3 µM |  | 18.9 µM | 15 µM | 15.6 µM | > 60 µM | > 38.7 µM | 22 µM | 54.8 µM | 25.7 µM | 15.1 µM |  |  |  |  |  |  |  | 
CC(=O)NC(CS)C(=O)NC(CO)C(=O)NC(CO)C(=O)NC(Cc1c[nH]c2ccccc12)C(=O)N1CCCC1C(=O)NC(CO)C(=O)NC(Cc1c[nH]c2ccccc12)C(=O)NC(Cc1c[nH]cn1)C(=O)NC(CO)C(=O)NC(Cc1c[nH]c2ccccc12)C(=O)NCC(=O)NCC(=O)NC(C)C(=O)NC(CCC(N)=O)C(=O)NC(CCCCN)C(=O)NC(C)C(=O)NC(CCCNC(=N)N)C(=O)NC(CCCCN)C(N)=O (centres undefined) (Ac-CSSWPSWHSWGGAQKARK-NH2; configuration not given here) |  | 22.4 µM |  | 27.7 µM | > 50 µM | > 50 µM |  | 19.5 µM |  |  | 48.8 µM |  |  |  |  | 19.7 µM |  |  |  | 
N#CC1(C#N)C(=O)c2ccncc2C1=O |  | > 100 µM |  | > 100 µM | > 100 µM |  |  |  |  |  | > 100 µM |  |  |  |  | > 100 µM |  |  |  | 
O=S(=O)(O)c1ccc(N=Nc2ccc(N=Nc3c(O)ccc4ccc(S(=O)(=O)O)cc34)cc2)cc1 |  | > 100 µM |  | > 100 µM | > 100 µM |  |  | > 100 µM |  |  | > 100 µM |  |  |  |  | > 100 µM |  |  |  | 
CN(CCO)CCC1COc2ccccc2O1 (centres undefined) |  | > 10 µM |  | > 10 µM | > 10 µM | > 10 µM |  |  |  |  | > 10 µM |  |  |  |  | > 10 µM |  |  |  | 
Brc1ccc2nc(-c3cccs3)nc(N3CCN(c4ccccc4)CC3)c2c1 |  | > 100 µM |  | > 100 µM | > 100 µM | > 100 µM |  | > 100 µM |  |  | > 100 µM |  |  |  |  | > 100 µM |  |  |  | 
CC(C)(C)c1ccc(NS(=O)(=O)c2ccc(N)cc2)cc1 |  | 32.5 µM |  | 39.2 µM | 34.7 µM | 33.1 µM |  | 52.1 µM |  |  | 67.9 µM |  |  |  |  | 68.1 µM |  |  |  | 
COc1cc(-c2n/c(=C\c3c(O)[nH]c4ccccc34)cc3c2=Nc2ccccc2-3)ccc1F | 4.45 µM | 24.1 µM | 2.05 µM | 4.19 µM | 21.6 µM | 59.7 µM |  |  |  |  | 17.6 µM |  | 4.09 µM | 9.09 µM | 3.91 µM | 16.8 µM | 2.83 µM |  |  | 
C/C=C(\C)C(=O)OC1C2C(C)=CC(=O)C(O)C2(C)C2C3(O)OCC24C1OC(=O)C(OC(C)=O)C4C(C)C3O (centres undefined) |  |  |  | 0.0407 µM | 0.875 µM | 0.375 µM | 0.141 µM |  | 0.795 µM | 0.792 µM | 0.266 µM | 0.0409 µM |  |  |  |  |  |  |  | 
CCOC(=O)NC(=O)c1cn(CCN(CCO)C(=O)NCCCCCCNC(=O)N(CCO)CCn2cc(C(=O)NC(=O)OCC)c(=O)[nH]c2=O)c(=O)[nH]c1=O |  | > 100 µM |  | > 100 µM | > 100 µM | > 100 µM | > 100 µM |  | > 100 µM | > 100 µM | > 100 µM | > 100 µM |  |  |  |  |  |  |  | 
CCCC[n+]1ccn(-c2nc3ccccc3n2C)c1 |  | > 100 µM |  | > 100 µM | > 100 µM | > 100 µM | > 100 µM |  | > 100 µM | > 100 µM | > 100 µM | > 100 µM |  |  |  |  |  |  |  | 
COc1nc2ccc(Cl)c(C(O)c3ccccc3)c2nc1OC (centres undefined) |  | 30.3 µM |  | 88 µM | 32.7 µM | 36.5 µM |  |  |  |  | 61.2 µM |  |  |  |  | 39.9 µM |  |  |  | 
COC(Cc1cc(C(O)(c2ccc(C(C)(C)C)cc2)c2cc(CC(OC)(c3cc(C(OC)(c4ccc(C(C)(C)C)cc4)c4ccc(C(C)(C)C)cc4)c(C)cc3C)c3cc(C(OC)(c4ccc(C(C)(C)C)cc4)c4ccc(C(C)(C)C)cc4)c(C)cc3C)c(C)cc2C)c(C)cc1C)(c1cc(C(OC)(c2ccc(C(C)(C)C)cc2)c2ccc(C(C)(C)C)cc2)c(C)cc1C)c1cc(C(OC)(c2ccc(C(C)(C)C)cc2)c2ccc(C(C)(C)C)cc2)c(C)cc1C |  | > 75 µM |  | > 75 µM | > 75 µM | > 75 µM |  |  |  |  | > 75 µM |  |  |  |  | > 75 µM |  |  |  | 
N/C(=C\c1ccc(/C=C(\NC(=O)c2ccccc2)c2nc3c([nH]2)C(=O)c2ccccc2C3=O)cc1)c1nc2c([nH]1)C(=O)c1ccccc1C2=O |  | 31.5 µM |  | 33.6 µM | 29.5 µM | 47.1 µM | 63.1 µM |  | 36.2 µM | 28.4 µM | 32.8 µM | 22.9 µM |  |  |  |  |  |  |  | 
N#C[S-].[Ce+3].c1ccc(-c2ccccn2)nc1.c1ccc(-c2ccccn2)nc1.c1ccc(-c2ccccn2)nc1 | 3.78 µM | 20.4 µM | 13.3 µM | > 100 µM | > 100 µM | 63.7 µM | > 100 µM |  |  | 46.8 µM | 97.3 µM | 78.8 µM | 30.5 µM | 4.2 µM |  |  | 26.9 µM | 58.3 µM | 4.33 µM | 23.9 µM
